In patent US6673793B2, “Oxazinoquinolones useful for the treatment of viral infections” (Pharmacia & Upjohn Co., priority 2000, dated 2004):

Columns and labels:
CMV polymerase = target: T1, CMV polymerase (Human cytomegalovirus, UniProt P08546); assay: HCMV polymerase assay, scintillation proximity assay (SPA), modified version; type: biochemical; conditions: modified HCMV polymerase SPA assay: compounds diluted in 100% DMSO, 4.5 mM DTT in polymerase buffer, different lot of CMV polymerase; read-out: CMV polymerase IC50
T1 construct: made in house; host or cells: recombinant baculovirus-infected SF-9 cells
How it was run: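 Baculovirus/SF-9-expressed HCMV polymerase in SPA with 90 nM ^3H-dTTP and 6 nM biotinylated poly(dA)-oligo(dT), pH 7.5 HEPES/KCl/MgCl2/BSA, with or without 2 mM CHAPS. Runs 30 min at 25 C. or 37 C., EDTA stop, streptavidin-SPA beads counted; IC50 by linear regression. Modified version: compounds diluted in 100% DMSO rather than 50%, plus 4.5 mM DTT.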

T1 sequence (P08546 whole entry): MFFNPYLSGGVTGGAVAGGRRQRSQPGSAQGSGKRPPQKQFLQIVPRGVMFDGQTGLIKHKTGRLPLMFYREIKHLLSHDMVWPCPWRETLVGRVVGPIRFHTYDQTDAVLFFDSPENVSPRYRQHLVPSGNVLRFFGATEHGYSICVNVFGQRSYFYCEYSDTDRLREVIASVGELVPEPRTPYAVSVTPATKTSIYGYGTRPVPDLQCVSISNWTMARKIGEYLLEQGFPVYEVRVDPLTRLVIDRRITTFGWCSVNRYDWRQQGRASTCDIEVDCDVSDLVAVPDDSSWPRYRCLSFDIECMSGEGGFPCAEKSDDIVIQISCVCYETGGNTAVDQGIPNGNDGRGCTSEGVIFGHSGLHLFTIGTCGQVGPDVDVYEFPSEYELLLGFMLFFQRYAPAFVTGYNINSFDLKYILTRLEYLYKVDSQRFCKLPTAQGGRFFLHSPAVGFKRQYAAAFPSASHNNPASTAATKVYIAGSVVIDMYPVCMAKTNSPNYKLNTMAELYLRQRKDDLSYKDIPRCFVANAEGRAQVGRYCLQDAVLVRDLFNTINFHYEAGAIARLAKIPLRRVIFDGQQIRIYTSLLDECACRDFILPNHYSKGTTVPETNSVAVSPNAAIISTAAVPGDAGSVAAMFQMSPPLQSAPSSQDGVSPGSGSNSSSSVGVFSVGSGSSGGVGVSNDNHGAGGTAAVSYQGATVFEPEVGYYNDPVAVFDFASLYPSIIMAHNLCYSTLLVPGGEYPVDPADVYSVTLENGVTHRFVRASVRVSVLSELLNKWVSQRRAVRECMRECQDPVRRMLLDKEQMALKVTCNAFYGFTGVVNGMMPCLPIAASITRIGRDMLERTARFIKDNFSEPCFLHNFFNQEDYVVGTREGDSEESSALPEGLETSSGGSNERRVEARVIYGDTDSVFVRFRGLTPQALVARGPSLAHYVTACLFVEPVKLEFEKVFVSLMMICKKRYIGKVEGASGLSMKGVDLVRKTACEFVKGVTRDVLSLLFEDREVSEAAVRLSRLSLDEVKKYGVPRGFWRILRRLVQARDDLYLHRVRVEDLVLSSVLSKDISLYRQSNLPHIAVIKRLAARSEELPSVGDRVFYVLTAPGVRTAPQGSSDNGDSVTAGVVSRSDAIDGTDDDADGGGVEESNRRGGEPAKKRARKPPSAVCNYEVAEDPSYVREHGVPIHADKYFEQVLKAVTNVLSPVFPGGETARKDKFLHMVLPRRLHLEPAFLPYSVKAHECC

Structure (SMILES) | melting point | IC50 (CMV polymerase) [nM]
O=C(NCc1ccc(Cl)cc1)c1cn2c3c(cc(CN4CCOCC4)cc3c1=O)OC(c1cccc(O)c1)C2 (centres unmarked) [Example 63, N-(4-Chlorobenzyl)-2-(3-hydroxyphenyl)-9-(4-morpholinylmethyl)-7-oxo-2,3-dihydro-7H-[1,4]oxazino[2,3,4-ij]quinoline-6-carboxamide] | 213 °C (dec.) | 290
O=C(NCc1ccc(Cl)cc1)c1cn2c3c(cc(CN4CCOCC4)cc3c1=O)OC(c1ccc(O)cc1)C2 (centres unmarked) [Example 65, N-(4-Chlorobenzyl)-2-(4-hydroxyphenyl)-9-(morpholin-4-ylmethyl)-7-oxo-2,3-dihydro-7H-[1,4]oxazino[2,3,4-ij]quinoline-6-carboxamide] | > 260 °C | 450
COCOCc1ccccc1C1Cn2cc(C(=O)NCc3ccc(Cl)cc3)c(=O)c3cc(CN4CCOCC4)cc(c32)O1 (centres unmarked) [Example 66, N-(4-Chlorobenzyl)-2-{2-[(methoxymethoxy)methyl]phenyl}-9-(morpholin-4-ylmethyl)-7-oxo-2,3-dihydro-7H-[1,4]oxazino[2,3,4-ij]quinoline-6-carboxamide] | 202.5 to 204.5 °C | 590
O=C(NCc1ccc(Cl)cc1)c1cn2c3c(cc(CN4CCOCC4)cc3c1=O)OC(c1ccccc1CO)C2 (centres unmarked) [Example 69, N-(4-Chlorobenzyl)-2-[2-(hydroxymethyl)phenyl]-9-(morpholin-4-ylmethyl)-7-oxo-2,3-dihydro-7H-[1,4]oxazino[2,3,4-ij]quinoline-6-carboxamide] | 218 to 223 °C (dec.) | 330

The next lines start with the values.

melting point | IC50 (CMV polymerase) [nM] | Structure (SMILES)
186.5 to 189 °C | 540 | COCOCc1cccc(C2Cn3cc(C(=O)NCc4ccc(Cl)cc4)c(=O)c4cc(CN5CCOCC5)cc(c43)O2)c1 (centres unmarked) [Example 61, N-(4-Chlorobenzyl)-2-{3-[(methoxymethoxy)methyl]phenyl}-9-(morpholin-4-ylmethyl)-7-oxo-2,3-dihydro-7H-[1,4]oxazino[2,3,4-ij]quinoline-6-carboxamide]
229 to 233 °C | 380 | O=C(NCc1ccc(Cl)cc1)c1cn2c3c(cc(CN4CCOCC4)cc3c1=O)OC(c1cccc(CO)c1)C2 (centres unmarked) [Example 62, N-(4-Chlorobenzyl)-2-[3-(hydroxymethyl)phenyl]-9-(morpholin-4-ylmethyl)-7-oxo-2,3-dihydro-7H-[1,4]oxazino[2,3,4-ij]quinoline-6-carboxamide]
236 to 239 °C | 1690 | COCOCc1ccc(C2Cn3cc(C(=O)NCc4ccc(Cl)cc4)c(=O)c4cc(CN5CCOCC5)cc(c43)O2)cc1 (centres unmarked) [Example 67, N-(4-Chlorobenzyl)-2-{4-[(methoxymethoxy)methyl]phenyl}-9-(morpholin-4-ylmethyl)-7-oxo-2,3-dihydro-7H-[1,4]oxazino[2,3,4-ij]quinoline-6-carboxamide]
